Measurements published in patent US20130085133A1, “ANTI-VIRAL TREATMENT AND ASSAY TO SCREENFOR ANTI-VIRAL AGENT” (Sourthern Research Institute Office of Commercialization …, priority 2010, published 2013).

Tests used:
[1] = cytotoxicity assay (percent viability of HEp-2 cells, Cell Titer-Glo); settings: human
Experimental: (§1) Test compounds were evaluated by measuring their antiviral activity, cell toxicity, and selectivity. Test compounds were serially diluted in a plate to plate matrix or “stacked plate” matrix. All 320 compounds in a source plate were diluted together resulting in a 10 point dose response dilution series. It was visualized as a serial dilution series proceeding vertically through a stack of plates with the high dose plate on top and the low dose plate on the bottom.
(§2) Following the six day incubation period, the assay plates were equilibrated to room temperature for 30 min and an equal volume (30 μL) of Cell Titer-Glo reagent (Promega Inc.) was added to each well using a WellMate (Matrix, Hudson, N.H.) and plates were incubated for an additional 10 min at room temperature. At the end of the incubation, luminescence was measured using a Perkin Elmer Envision™ multi-label reader (PerkinElmer, Wellesley, Mass.) with an integration time of 0.1 s.
(§3) Data was analyzed using ActivityBase software (IDBS, Inc, Guilford, UK). thirty two control wells containing cells only and twenty four wells containing cells and virus were included on each assay plate and used to calculate Z′ value for each plate and to normalize the data on a per plate basis. […] Eight ribavirin positive control wells were included on each plate for quality control purposes, but were not used in Z′ calculations. […] In the toxicity assay, results are described as percent viability and the calculation is the same.
(§4) An EC50 (for CPE inhibition) and IC50 (for cell viability) were calculated for each substance using the 4 parameter Levenburg-Marquardt algorithm with parameter A locked at 0 and parameter B locked at 100. Standard deviation, normalized chi2 and hill slope were used to evaluate the curves. Values were not extrapolated beyond the tested range of concentrations.

[2] = tested on: respiratory syncytial virus (RSV) strain Long; experiment: microbe, parasite or virus in culture; settings: human respiratory syncytial virus, HEp-2, 144 h
Experimental: The assay measures RSV virus-induced CPE in HEp-2 cells using cell viability as the end point.
Two vials of RSV (strain Long) containing 1×10^7 pfu/mL was thawed using an Eppendorf thermomixer for 13 min at 15° C., with shaking at 350 rpm. […] The cells were incubated for 18-20 h at 37° C., 5% CO2, 90% relative humidity. The medium was aspirated and the cells washed with 10 mL PBS without Mg^2+ or Ca^2+. Cells were harvested from flasks using 0.25% trypsin-EDTA. The cells were resuspended in a freezing medium of 95% fetal calf serum and 5% DMSO to a final cell density of 2×10^6 cells/mL. One mL aliquots of this virus infected cell suspension were dispensed to cryovials and cells were rate frozen to −80° C. Frozen infected cells were then transferred to −150° C. for long term storage.
as §1
Cells were harvested and resuspended to 80,000 cells per ml in Complete DMEM/F12.
Cells were thawed in a room temperature water bath with gentle agitation. The tube was inverted 5-10. Cells were diluted to 80,000 cells per ml by adding the contents of the vial to 24 ml of cold (4° C.) media.
Twenty five ul of uninfected HEp-2 cells were plated in the cell control wells. Frozen infected cells were combined with uninfected HEp-2 cells at a 1:100 ratio. Twenty five ul of the cell mixture was added to the virus control and compound wells. All cell plating was conducted using a Matrix WellMate and cells were maintained at room temperature with stirring during the plating process. The assay plates were incubated for six days at 37° C., 5% CO2 and 90% relative humidity.
as §2, §3, §4

Row | Structure (SMILES) | CC50 at 6 days ([1]; HEp-2 cells) | EC50 [2] | CC50 at 6 days [1] [µg/mL]
1 | Cn1c(SC/C=C/c2ccccc2)nnc1-c1cccs1 [AB00318335] | > 25 µg/mL | 24.2 µg/mL | 
2 | COc1ccc(-c2ccc(-c3noc(-c4ccco4)n3)c(OC)n2)cc1 [AB00353001] | > 25 µg/mL | 18.4 µg/mL | 
3 | Cc1ccc2c(ccc3nc(C)ccc32)n1 [AB00278348] | > 25 µg/mL | 12.6 µg/mL | 
4 | C=CCn1c(SC(C)C(=O)Nc2cc(C(F)(F)F)ccc2Cl)nnc1-c1ccccc1OC (stereo not shown) [AB00741842] | > 50 µM | 26.7 µM | 
5 | COc1ccc(-c2nc(CSc3nnc(C4CC4)n3C3CC3)cs2)cc1 [AB00747970] | > 50 µM | 10.8 µM | 
6 | CC(=O)CCc1c(C)nc2ccc(Br)cc2c1S [AB00279343] | > 25 µg/mL | 20.7 µg/mL | 
7 | CC(Oc1ccc(-c2ccccc2)cc1)C(=O)Nc1nnc(C2CCCO2)s1 (stereo not shown) [AB00365647] | > 25 µg/mL | 19.3 µg/mL | 
8 | COc1cc([N+](=O)[O-])ccc1NC(=O)C1CC(Cl)=CCC1C(=O)O (stereo not shown) [AB00296680] | > 25 µg/mL | 12.9 µg/mL | 
9 | NC(=O)CC1Nc2ccccc2NC1=O (stereo not shown) [AB00294484] | > 25 µg/mL | 16.4 µg/mL | 
10 | Cc1cccc(C(=O)Nc2cc(C(C)C)c(O)cc2C)c1 [AB00305611] | > 25 µg/mL | 17.1 µg/mL | 
11 | CCC(=O)Nc1ccc(C(=O)OCc2cccc(F)c2)cc1 [AB00363859] | > 25 µg/mL | 12.6 µg/mL | 
12 | CN(C)C(=O)Oc1ccc2ccccc2c1Cl [AB00339302] |  | 12.3 µg/mL | > 25
13 | COc1ccc(-c2nc3ccccc3s2)cc1O [AB00339206] | > 25 µg/mL | 21.9 µg/mL | 
14 | Cc1sc(NC(=O)CCc2ccccc2)c(C(=O)O)c1C [AB00304690] | > 25 µg/mL | 13.2 µg/mL | 
15 | O=C(N1CCCC1)N1c2ccccc2CCc2ccccc21 [AB00276381] | > 25 µg/mL | 12.2 µg/mL | 
16 | CC(C)(C)c1ccc(C(=O)N2CCC(C(=O)Nc3ccc4c(c3)OCO4)CC2)cc1 [AB00317272] | > 25 µg/mL | 22.3 µg/mL | 
17 | CCOC(=O)c1ccc(NC(=O)NC(C)C2CCCO2)cc1 (stereo not shown) [AB00349705] | > 25 µg/mL | 19.2 µg/mL | 
18 | CNc1ncnc2c1ncn2[C@H]1C[C@@H](CO)[C@H](O)[C@@H]1O [AB00430484] | > 50 µM | 33.7 µM | 
19 | COc1ccc2cc(Br)ccc2c1CO [AB00309550] | > 25 µg/mL | 16.3 µg/mL | 
20 | CCc1c(C)sc(NC(=O)c2ccc(C)o2)c1C(N)=O [AB00313012] | > 25 µg/mL | 18 µg/mL | 
21 | CCOc1ccccc1/C=C(\C#N)c1nc2sc3c(c2c(=O)[nH]1)CCCC3 [AB00726710] | > 50 µM | 30.9 µM | 

Row | Structure (SMILES) | CC50 at 6 days ([1]; HEp-2 cells) | EC50 [2] | CC50 at 6 days [1] [µg/mL]
22 | N#CCCCCN1c2cccc3cccc(c23)S1(=O)=O [AB00373143] | > 25 µg/mL | 14.3 µg/mL | 
23 | COc1ccc(C(=O)NCCc2cccc(Cl)c2)c(OC)c1 [AB00310156] | > 25 µg/mL | 10.4 µg/mL | 
24 | CC(=O)c1cccc(NC(=S)NNC(=S)Nc2ccc(F)cc2F)c1 [AB00349666] | > 25 µg/mL | 21.2 µg/mL | 
25 | CCOc1nc2sc3c(c2c2ncnn12)CCCC3 [AB00372085] | > 25 µg/mL | 11.6 µg/mL | 
26 | O=C(CCc1ccccc1)Nc1sc2c(c1C(=O)O)CCC2 [AB00877405] | > 50 µM | 27.8 µM | 
27 | CC(C)CCCC(C)C1CC[C@@H]2[C@@H]3CC[C@@H]4CC(CCC=C(c5cc(Cl)c(O)c(C(=O)O)c5)c5cc(Cl)c(O)c(C(=O)O)c5)CC[C@]4(C)[C@@H]3CC[C@]12C (stereo partly shown) [AB00443953] | > 50 µM | 21.3 µM | 
28 | COC(=O)c1c(-c2ccccc2)csc1NC(=O)c1c(-c2ccccc2)noc1C [AB00310910] | > 25 µg/mL | 1.15 µg/mL | 
29 | Cc1cc(SCCC#N)nc2ccccc12 [AB00371866] | > 25 µg/mL | 13.7 µg/mL | 
30 | O=Cc1cc(Br)c(Sc2ncccn2)o1 [AB00326733] | > 25 µg/mL | 18.8 µg/mL | 
31 | CCCCC(=O)Nc1cccc(NC(=O)c2ccc(OCC)c([N+](=O)[O-])c2)c1 [AB00318606] | > 25 µg/mL | 23.5 µg/mL | 
32 | Cn1c(SCCc2ccccc2)nnc1-c1cccc([N+](=O)[O-])c1 [AB00309238] | > 25 µg/mL | 20.3 µg/mL | 
33 | Cc1ccc(C)n1-c1ccc(C(=O)O)cc1 [AB00275199] | > 25 µg/mL | 13 µg/mL | 
34 | COc1cccc(Nc2nnc(SCC(=O)/C(C#N)=C(\C)N)s2)c1 [AB00767910] | > 50 µM | 6.07 µM | 
35 | Cc1cc(C)cc(OCC(O)CNC(C)c2ccccc2)c1 (stereo not shown) [AB00283699] | > 25 µg/mL | 12.9 µg/mL | 
36 | Cc1nc(Nc2ccccc2Cl)sc1C(=O)Nc1ccccc1 [AB00299380] | > 25 µg/mL | 10.4 µg/mL | 
37 | Cc1noc(C)c1S(=O)(=O)N1CCN(Cc2ccccc2C#N)CC1 [AB00785032] | > 50 µM | 46.5 µM | 
38 | Cc1ccc(S(=O)(=O)NC2CCCC(C(=O)Oc3ccc4c(c3)oc(=O)c3ccccc34)C2)cc1 (stereo not shown) [AB00297971] | > 25 µg/mL | 19.2 µg/mL | 
39 | Cc1ccc2nc(SCCC#N)nc(C)c2c1 [AB00284847] | > 25 µg/mL | 22.5 µg/mL | 
40 | COc1ccccc1C(=O)N(CCCCN1C(=O)c2ccccc2C1=O)c1ccc(Cl)cc1 [AB00301352] | > 25 µg/mL | 21.1 µg/mL | 
41 | C=CCNC(=O)COc1ccc(Br)cc1C [AB00299924] | > 25 µg/mL | 22.4 µg/mL | 
42 | O=S(=O)(O)c1cc(/N=N/c2cc(S(=O)(=O)O)c3cccnc3c2O)ccc1/C=C/c1ccc(/N=N/c2cc(S(=O)(=O)O)c3cccnc3c2O)cc1S(=O)(=O)O [AB00444372] | > 50 µM | 10.9 µM | 

Row | Structure (SMILES) | CC50 at 6 days ([1]; HEp-2 cells) | EC50 [2] | CC50 at 6 days [1] [µg/mL]
43 | Cc1cc(C)n2nc(C(=O)Nc3cnn(C45CC6CC(CC(C6)C4)C5)c3)cc2n1 [AB00371387] | > 25 µg/mL | 12.7 µg/mL | 
44 | Cc1ccc(O)c(C(=O)c2cc(C(=O)Nc3ccccc3C)c(=O)n(-c3ccccc3C)c2)c1 [AB00719359] | > 50 µM | 29.8 µM | 
45 | CCN(c1ccccc1)S(=O)(=O)c1cccc(C(=O)Nc2nccs2)c1 [AB00739796] | > 50 µM | 22.2 µM | 
46 | CCOC(=O)CCC(NC(=O)c1cnc(NCc2cnc3nc(N)nc(N)c3c2C)s1)C(=O)OCC (stereo not shown) [AB00375242] | > 50 µM | 42 µM | 
47 | O=C(CCNC(=O)c1ccc(Br)cc1)NC1CCCc2ccccc21 (stereo not shown) [AB00739576] | > 50 µM | 24.7 µM | 
48 | O=C(CCN1C(=O)c2cccc3cccc(c23)C1=O)N1CCc2ccccc2C1 [AB00315918] | > 25 µg/mL | 15.4 µg/mL | 
49 | O=c1cnnc(N/N=C/c2ccccc2Br)[nH]1 [AB00283422] | > 25 µg/mL | 15.8 µg/mL | 
50 | O=C(Nc1cccc(C(F)(F)F)c1)c1ccccc1Cl [AB00276634] | > 25 µg/mL | 15.8 µg/mL | 
51 | Cc1ccc(-c2csc(NC(=O)COC(=O)c3cccc(Cl)c3)n2)cc1C [AB00720414] | > 50 µM | 49.1 µM | 
52 | Cc1ccc(N(CCCCN2C(=O)c3ccccc3C2=O)C(=O)c2cccc(C)c2)cc1 [AB00302020] | > 25 µg/mL | 15.1 µg/mL | 
53 | Cc1nc(N)sc1-c1csc(Nc2ccccn2)n1 [AB00280085] | > 25 µg/mL | 18.9 µg/mL | 
54 | O=C(Nc1ccc(F)c(Cl)c1)C1CCN(C(=O)c2ccc(Cl)cc2)CC1 [AB00299386] | > 25 µg/mL | 12.3 µg/mL | 
55 | Cc1cccc(C)c1NC(=O)c1cccc(C(=O)Nc2c(C)cccc2C)n1 [AB00313091] | > 25 µg/mL | 19.5 µg/mL | 
56 | Cc1cccc(NC(=O)COC(=O)c2ccc(F)cc2N)c1C [AB00756405] | > 50 µM | 11.5 µM | 
57 | COC(=O)c1ccc(NC(=O)c2ccc(C)c(Br)c2)cc1 [AB00302921] | > 25 µg/mL | 20.3 µg/mL | 
58 | CCC(=O)Nc1ccc(-c2csc(N)n2)cc1 [AB00310808] | > 25 µg/mL | 23.6 µg/mL | 
59 | c1coc(-c2nn3c(Cn4nnc5ccccc54)nnc3s2)c1 [AB00370063] | > 25 µg/mL | 1.97 µg/mL | 
60 | CC(=O)c1ccc2c3c(ccc(O)c13)CC2 [AB00293238] | > 25 µg/mL | 11.4 µg/mL | 
61 | O=C(c1ccccc1C(=O)N1CCc2ccccc2C1)N1CCc2ccccc2C1 [AB00310729] | > 25 µg/mL | 14.1 µg/mL | 
62 | S=C(c1ccc(OCc2cccc3ccccc23)cc1)N1CCOCC1 [AB00362891] | > 25 µg/mL | 23.4 µg/mL | 
